Laboratory results taken from ChEMBL document CHEMBL1156896, “Synthesis and structure-activity relationships of a series of 3-aryl-4-isoxazolecarboxamides as a new class of TGR5 agonists” (Bioorg Med Chem Lett, 2010).

What was measured:
[1] = in vitro; settings: dog, MDCK
[2] = Permeability in artificial membrane assay; assay type: ADME, cell membranes; settings: PAMPA; read-out: permeability

**Q.** What does the source list for `CCN(C(=O)c1c(-c2ccccc2Cl)noc1C)c1cccc(Cl)c1`?
**A.** Papp [1]: 44.8 ×10⁻⁶ cm/s; Papp [2]: 31 ×10⁻⁶ cm/s
